# Laboratory results: patent US20090028925A1, “Novel Phosphinic Acid-Containing Thyromimetics” (priority 2005, published 2009)
# Key:
# [1] = Liver distribution following oral administration; format: in vivo; settings: liver levels of Compound 7, normal rats, oral 10 mg/kg
# Procedure: Liver levels of Compound 7 were assessed in normal rats following oral administration of the HepDirect™ or other prodrugs. The levels were used to estimate potential efficacy. Liver levels were assessed by LC-MS using the 363.3/63.0 peak area to estimate levels of Compound 7 generated by orally administered prodrugs.
# [2] = system: thyroid stimulating hormone (TSH); test: Circulating TSH in mice; format: in vivo; settings: 10 mg/kg/d for 77 days
# Source text: Another concern with synthetic thyromimetics is the suppression of the endogenous thyroid axis. Thyroid homeostasis is maintained by the action of thyroid releasing hormone (TRH) and thyroid stimulating hormone (TSH). […] Although this particular side effect has been noted, it has typically been treated with less concern than the cardiac safety issues. […] Therefore previous investigators have measured TSH levels when testing synthetic thyromimetics and have used a 30% decrease of TSH as the denominator in their therapeutic index calculations. […] Therefore, both compounds suppress TSH as doses lower than that required to decrease circulating cholesterol. […] However, 0.2 mg/kg/d of Compound 18 in 28 day treated ZDF rats, decreased TSH levels greater than 90%.
# [3] = system: liver mitochondrial glycerol phosphate dehydrogenase (mGPDH) activity; test: Subacute study in normal rats, continuous infusion: liver mGPDH activity; format: in vivo, rats (Sprague-Dawley); settings: continuous infusion 1 mg/kg/day
# Source text: (§1) Efficacy endpoints include serum cholesterol, liver mitochondrial glycerol phosphate dehydrogenase (mGPDH) activity and the expression of relevant liver genes (e.g., the LDL-receptor, apoB, cpt-1, spot14 and apoAI). Safety parameters include heart weight, heart rate, heart mGPDH activity, the expression and key genes involved in cardiac structure and function (e.g., Serca2, HCN2, Kv1.5, MHCα, MHCβ, Alpha1c), and standard plasma chemistry analysis (liver enzymes, electrolytes, creatinine). Endocrine effects are monitored by analysis of serum thyroid stimulating hormone (TSH). [Taylor et al., Mol Pharmacol 52(3): 542-7 (1997); Weitzel et al., Eur J Biochem 268(14):4095-4103 (2001)]
# Methods: mGPDH activity was analyzed in isolated mitochondria using 2-(4-iodophenyl)-3-(4-nitrophenyl)-5-phenyl tetrazolium chloride as the terminal electron acceptor (Gardner R S, Analytical Biochemistry 59:272 (1974)). Commercially available GPDH was used in each assay as a standard (Sigma, St. Louis, Mo.). Changes in levels of mRNA for liver and heart genes are analyzed using reverse transcriptase followed by real-time PCR analysis. The analysis is performed using an iCycler instrument (Biorad) and appropriate primers by means of standard methodology [e.g., Schwab D A et al. (2000) Life Sciences 66: 1683-94]. The amounts of mRNA are normalized to an internal control, typically, cyclophilin. Serum TSH is measured using an enzyme immunoassay (EIA) kit designed for rat TSH (Amersham Pharmacia Biotech, Arlington Heights, Ill.).
# (§2) Normal rats (Sprague-Dawley) were maintained on a standard diet. […] The compounds were brought up to an appropriate volume using PBS and BSA to maintain solubility within the pump. The compounds were chemically stable in the excipient at 37° C. for 7 days.
# (§3) Values are expressed as percent of control. (Table 4)
# serum cholesterol = test: Subacute study in cholesterol-fed rats, IP: serum cholesterol; format: in vivo; settings: IP once-a-day for seven days
# [4] = Subacute study in normal rats, continuous infusion: heart weight; format: in vivo, rats (Sprague-Dawley); settings: continuous infusion 1 mg/kg/day
# Source text: as §1, §2, §3
smiles,measurement,setting,value
"Cc1cc(OCP(=O)(O)O)cc(C)c1Cc1ccc(O)c(C(C)C)c1 [Compound 7, [3,5-dimethyl-4-(4′-hydroxy-3′-iso-propylbenzyl)phenoxy]methylphosphonic acid]",Liver Levels (ug/g) (10 mg/kg@1.5 h),[1],Not Detected
same,decrease in TSH,[2],no decrease in TSH was observed
same,Liver GPDH,[3],399% of control
same,doses that significantly decreased serum cholesterol,serum cholesterol,1 to 100 mg/kg/day
same,Heart Weight,[4],108% of control
same,cardiac hypertrophy,[4],did not cause cardiac hypertrophy
